{
  "source": "patent US20190322632A1",
  "about": "“HRI ACTIVATORS USEFUL FOR THE TREATMENT OF CARDIOMETABOLIC DISEASES” (UNIVERSITAT DE BARCELONA, priority 2016, published 2019)",
  "key": {"Akt": {"system": "Akt", "test": "Insulin signalling in hepatocytes (insulin-stimulated Akt phosphorylation, immunoblot)", "assay_type": "cell-based, human", "conditions": "Huh-7 cells, 24 h, 0.75 mmol/L palmitate plus 10 μmol/L compound, 100 nmol/L insulin last 10 min; FIG. 6", "experimental": "(B). When indicated (+), cells were incubated with 100 nmol/L insulin (I) for the last 10 min. Data are presented as the mean±SD (n=4 per group). ***p<0.001 and *p<0.05 vs. control cells not exposed to insulin. ^###p<0.001 and ^##p<0.01 vs. insulin-stimulated control cells. ^554 \\\\p<0.001 vs. insulin-stimulated cells incubated with palmitate. Ins: insulin.\nInventors examined the insulin signalling pathway by measuring insulin-stimulated Akt phosphorylation. Huh-7 cells were incubated for 24 h with BSA (Control, CT), 0.75 mmol/L palmitate (Pal) conjugated with BSA, or 0.75 mmol/L palmitate plus 10 μmol/L BTdCPU (Pal+BTdCPU). Immunoblot analyses of total and phosphorylated Akt was carried out."}, "[1]": {"system": "mice fed a high-fat diet (HFD)", "test": "Glucose tolerance test in mice fed a high-fat diet", "assay_type": "in vivo", "conditions": "HFD three weeks, 70 mg kg^−1 day^−1 i.p. daily for the last week, FIG. 7", "text": "Data are presented as the mean±SD (n=6 per group). *p<0.05 vs. mice fed a standard diet (CT). #p<0.05 vs. mice fed a HFD. G: glucose.\nT2DM is characterized by glucose intolerance, which is contributed to by peripheral (muscle, fat, and liver) insulin resistance as well as islet […] dysfunction (cf. Andrikopoulos S. et al., “Evaluating the glucose tolerance test in mice”, Am. J. Physiol. Endocrinol. Metab., 2008, vol. 295, pp. E1323-32). The glucose tolerance test (GTT) is used in clinical practice and research to identify individuals with impaired glucose tolerance by assessing the disposal of a glucose load. It is important to acknowledge that the GTT is the only means of identifying impaired glucose tolerance, which is considered a prediabetic state (cf. Andrikopoulos S. et al., ibid). The standard presentation of results from GTTs is a description of blood glucose levels over time after the glucose administration. Generally, a time course of absolute glucose levels is presented. When using diabetic or insulin-resistant models (such as the HFD-fed mouse), a time course of absolute glucose levels should still be presented along with a calculation of the AUC above baseline glucose. In this assay, the effect of the BTdCPU compound on glucose tolerance in mice fed a high-fat diet (HFD) was examined. […]"}, "mice fed a HFD": {"system": "mice fed a HFD", "test": "HFD-induced steatosis in mice (ORO and H&E liver staining, hepatic triglyceride levels)", "assay_type": "in vivo", "conditions": "HFD three weeks, 70 mg kg^−1 day^−1 i.p. daily for the last week", "text": "FIG. 8. (A) Oil Red O and eosin-hematoxylin (H&E) staining of livers of mice fed a standard chow (CT), a HFD for three weeks (HFD) or a HFD for three weeks plus BTdCPU during the last week (HFD+BTdCPU). (B) Liver triglyceride levels. Data are presented as the mean±SD (n=6 per group). *p<0.05 vs. mice fed a standard diet (CT). ^#p<0.05 vs. mice fed a HFD. G: glucose. TG: triglyceride.\nInventors examined whether the treatment with an HRI activator (BTdCPU) prevented the development of steatosis induced by a HFD. Histological analysis of a liver biopsy remains the gold standard for assessing the degree of steatosis. ORO staining and eosin-hematoxylin (H&E) staining of liver sections were performed. Mice fed a standard chow and half of the mice fed the HFD received one daily i.p. administration of DMSO (vehicle) for the last week. The rest of the mice fed the HFD received one daily i.p. administration of BTdCPU (70 mg kg^−1 day^−1) for the last week. […] Finally, hepatic lipids were extracted and hepatic triglyceride levels were assessed by using a commercially available kit (TR0100, Sigma). […] Overall, these findings indicate that HRI activation prevents HFD-induced steatosis."}, "FGF21": {"system": "FGF21", "test": "FGF21 expression in hepatocytes (quantitative real-time RT-PCR)", "assay_type": "cell-based, human", "conditions": "Huh-7 hepatocytes, 24 h, 10 μM; FIG. 9", "experimental": "Human Huh-7 hepatocytes were incubated for 24 h in the absence (Control, CT) or in the presence of compounds (10 μM). Assessment by quantitative real-time RT-PCR of FGF21. Data are presented as the mean±SD (n=4 per group). ***p<0.001 and **p<0.01 vs CT. ^###p<0.001, ^##p<0.01 and ^#p<0.05 vs BTCtFPU. ^††p<0.01 and ^†p<0.05 vs BTdCPU. BTCtFPU=1-(benzo[d][1,2,3]thiadiazol-6-yl)-3-(4-chloro-3-(trifluoromethyl)phenyl)urea (compound (3) in Chen T. et al., ibid.)."}, "human Huh-7 hepatocytes": {"system": "human Huh-7 hepatocytes", "test": "Palmitate-induced triglyceride accumulation in hepatocytes (Oil Red O staining)", "assay_type": "cell-based", "conditions": "Huh-7 cells, 24 h, 0.75 mmol/L palmitate plus 10 μmol/L compound; FIG. 5", "experimental": "To examine the effects of HRI activators on triglyceride accumulation and insulin signaling in hepatocytes, the N,N′-diarylurea BTdCPU was used. HRI is a kinase that phosphorylates eIF2α at its Ser 51 residue to execute protein synthesis regulation and thereby HRI activators cause the phosphorylation of eIF2α as previously described (Chen T. et al., ibid). First, the effect of BTdCPU on human Huh-7 hepatocytes exposed to the saturated fatty acid palmitate was explored. Huh-7 cells were incubated for 24 h with BSA (Control, CT), 0.75 mmol/L palmitate (Pal) conjugated with BSA or 0.75 mmol/L palmitate plus 10 μmol/L BTdCPU (Pal+BTdCPU). Then, they were stained with Oil Red O that allows selective detection of neutral lipids (primarily triglyceride and cholesterol esters) within Huh-7 cells."}},
  "data": [
    {"smiles": "O=C(Nc1ccc(Cl)c(Cl)c1)Nc1ccc2nnsc2c1", "note": "[BTdCPU, 1-(benzo[d][1,2,3]thiadiazol-6-yl)-3-(3,4-dichlorophenyl)urea]", "values": [
      {"measurement": "insulin-stimulated Akt phosphorylation", "setting": "Akt", "value": "partially restored the reduction in insulin-stimulated Akt phosphorylation caused by palmitate"},
      {"measurement": "glucose tolerance test AUC above baseline glucose", "setting": "[1]", "value": "prevented the increase in the AUC above baseline glucose"},
      {"measurement": "hepatic steatosis (ORO and H&E staining)", "setting": "mice fed a HFD; FIG. 8A", "value": "hepatic steatosis was reversed"},
      {"measurement": "hepatic triglyceride levels", "setting": "mice fed a HFD; FIG. 8B", "value": "increase was completely blunted"},
      {"measurement": "FGF21 expression compared with BTCtFPU", "setting": "FGF21", "value": "significant higher increase than compound BTCtFPU"},
      {"measurement": "palmitate-induced triglyceride accumulation (Oil Red O staining)", "setting": "human Huh-7 hepatocytes", "value": "accumulation was prevented"}
    ]}
  ]
}
